# Reference: the NIST ThermoML archive (doi:10.1021/je400529k)
# Where “and” joins values, the source holds several entries; their conditions need not be identical. Equal entries are not always repeated. ± gives the expanded uncertainty stated by the source.
# Tests used:
# [1] = 101 kPa, Liquid; for viscosity: Capillary tube (Ostwald / Ubbelohde) method; for mass density: Vibrating tube method
# [2] = refractive index (Na D-line) (dimensionless); details: 101.33 kPa, Liquid, Standard Abbe refractometry
# [3] = xn = mol fraction of the nth substance listed; details: 101 kPa, Liquid; for viscosity: Capillary tube (Ostwald / Ubbelohde) method; for mass density: Vibrating tube method
# [4] = refractive index (Na D-line) (dimensionless); xn = mol fraction of the nth substance listed; details: 101 kPa, Liquid, Standard Abbe refractometry
Compound,viscosity ([1]; 293.15 K),mass density ([1]; 293.15 K),viscosity ([1]; 298.15 K),mass density ([1]; 298.15 K),viscosity ([1]; 303.15 K),mass density ([1]; 303.15 K),viscosity ([1]; 308.15 K),mass density ([1]; 308.15 K),viscosity ([1]; 313.15 K),mass density ([1]; 313.15 K),viscosity ([1]; 318.15 K),mass density ([1]; 318.15 K),refractive index ([2]; 293.15 K),refractive index ([2]; 303.15 K),refractive index ([2]; 313.15 K),also measured
C1C[C@@H]2[C@H]3CC[C@H](C3)[C@@H]2C1 [exo-tetrahydrodicyclopentadiene],2.992 ± 0.02 mPa·s,935.72 ± 0.15 kg/m3,2.71 ± 0.018 mPa·s,931.84 ± 0.15 kg/m3,2.467 ± 0.017 mPa·s,927.94 ± 0.15 kg/m3 and 927.9 ± 0.2 kg/m3,2.255 ± 0.016 mPa·s,924.02 ± 0.15 kg/m3,2.069 ± 0.015 mPa·s,920.11 ± 0.15 kg/m3,1.907 ± 0.014 mPa·s,916.18 ± 0.15 kg/m3,1.4874 ± 0.001,1.4831 ± 0.001,1.4786 ± 0.001,–
CC1CCCCC1 [methylcyclohexane],0.733 ± 0.009 mPa·s,769.35 ± 0.15 kg/m3,0.687 ± 0.009 mPa·s,765.04 ± 0.15 kg/m3,0.646 ± 0.009 mPa·s,760.71 ± 0.15 kg/m3,0.609 ± 0.009 mPa·s,756.36 ± 0.15 kg/m3,0.576 ± 0.009 mPa·s,751.99 ± 0.16 kg/m3,0.546 ± 0.009 mPa·s,747.6 ± 0.16 kg/m3,1.422 ± 0.001,1.4172 ± 0.001,1.4118 ± 0.001,–
C1C[C@@H]2[C@H]3CC[C@H](C3)[C@@H]2C1 [exo-tetrahydrodicyclopentadiene] + CC1CCC(C)C(C)C1,–,–,–,–,–,–,–,–,–,–,–,–,–,–,–,"viscosity ([3]; 293.15 K, x1 = 1): 2.992 ± 0.02 mPa·s; mass density ([3]; 293.15 K, x1 = 1): 935.72 ± 0.15 kg/m3; viscosity ([3]; 298.15 K, x1 = 1): 2.71 ± 0.018 mPa·s; mass density ([3]; 298.15 K, x1 = 1): 931.84 ± 0.15 kg/m3; viscosity ([3]; 303.15 K, x1 = 1): 2.467 ± 0.017 mPa·s; mass density ([3]; 303.15 K, x1 = 1): 927.94 ± 0.15 kg/m3; viscosity ([3]; 308.15 K, x1 = 1): 2.255 ± 0.016 mPa·s; mass density ([3]; 308.15 K, x1 = 1): 924.02 ± 0.15 kg/m3; viscosity ([3]; 313.15 K, x1 = 1): 2.069 ± 0.015 mPa·s; mass density ([3]; 313.15 K, x1 = 1): 920.11 ± 0.15 kg/m3; viscosity ([3]; 318.15 K, x1 = 1): 1.907 ± 0.014 mPa·s; mass density ([3]; 318.15 K, x1 = 1): 916.18 ± 0.15 kg/m3; refractive index ([4]; 293.15 K, x1 = 1): 1.4874 ± 0.001; refractive index ([4]; 303.15 K, x1 = 1): 1.4831 ± 0.001; refractive index ([4]; 313.15 K, x1 = 1): 1.4786 ± 0.001"
CCCCC1CCCCC1 [butylcyclohexane] + C1C[C@@H]2[C@H]3CC[C@H](C3)[C@@H]2C1,–,–,–,–,–,–,–,–,–,–,–,–,–,–,–,"viscosity ([3]; 293.15 K, x2 = 0): 1.302 ± 0.011 mPa·s; mass density ([3]; 293.15 K, x2 = 0): 799.47 ± 0.15 kg/m3; viscosity ([3]; 298.15 K, x2 = 0): 1.2 ± 0.011 mPa·s; mass density ([3]; 298.15 K, x2 = 0): 795.71 ± 0.15 kg/m3; viscosity ([3]; 303.15 K, x2 = 0): 1.111 ± 0.01 mPa·s; mass density ([3]; 303.15 K, x2 = 0): 791.96 ± 0.15 kg/m3; viscosity ([3]; 308.15 K, x2 = 0): 1.032 ± 0.01 mPa·s; mass density ([3]; 308.15 K, x2 = 0): 788.2 ± 0.15 kg/m3; viscosity ([3]; 313.15 K, x2 = 0): 0.962 ± 0.01 mPa·s; mass density ([3]; 313.15 K, x2 = 0): 784.43 ± 0.15 kg/m3; viscosity ([3]; 318.15 K, x2 = 0): 0.899 ± 0.01 mPa·s; mass density ([3]; 318.15 K, x2 = 0): 780.65 ± 0.15 kg/m3; refractive index ([4]; 293.15 K, x2 = 0): 1.4399 ± 0.001; refractive index ([4]; 303.15 K, x2 = 0): 1.4354 ± 0.001; refractive index ([4]; 313.15 K, x2 = 0): 1.4311 ± 0.001"
CCC1CCCCC1 [ethylcyclohexane],0.845 ± 0.009 mPa·s,788.02 ± 0.15 kg/m3,0.791 ± 0.009 mPa·s,784.01 ± 0.15 kg/m3,0.743 ± 0.009 mPa·s,779.98 ± 0.15 kg/m3,0.7 ± 0.009 mPa·s,775.93 ± 0.15 kg/m3,0.661 ± 0.009 mPa·s,771.86 ± 0.15 kg/m3,0.626 ± 0.009 mPa·s,767.78 ± 0.15 kg/m3,1.4319 ± 0.001,1.4276 ± 0.001,1.4225 ± 0.001,–
"CC1CCC(C)C(C)C1 (stereo not drawn) [1,2,4-trimethylcyclohexane]",0.886 ± 0.012 mPa·s,790.8 ± 0.39 kg/m3,0.827 ± 0.011 mPa·s,786.92 ± 0.39 kg/m3,0.774 ± 0.011 mPa·s,783.03 ± 0.39 kg/m3,0.727 ± 0.011 mPa·s,779.13 ± 0.39 kg/m3,0.686 ± 0.01 mPa·s,775.23 ± 0.39 kg/m3,0.648 ± 0.01 mPa·s,771.32 ± 0.39 kg/m3,1.4331 ± 0.0011,1.4285 ± 0.0011,1.424 ± 0.0011,–
CC1CCCCC1 [methylcyclohexane] + C1C[C@@H]2[C@H]3CC[C@H](C3)[C@@H]2C1,–,–,–,–,–,–,–,–,–,–,–,–,–,–,–,"viscosity ([3]; 293.15 K, x2 = 0): 0.733 ± 0.009 mPa·s; mass density ([3]; 293.15 K, x2 = 0): 769.35 ± 0.15 kg/m3; viscosity ([3]; 298.15 K, x2 = 0): 0.687 ± 0.009 mPa·s; mass density ([3]; 298.15 K, x2 = 0): 765.04 ± 0.15 kg/m3; viscosity ([3]; 303.15 K, x2 = 0): 0.646 ± 0.009 mPa·s; mass density ([3]; 303.15 K, x2 = 0): 760.71 ± 0.15 kg/m3; viscosity ([3]; 308.15 K, x2 = 0): 0.609 ± 0.009 mPa·s; mass density ([3]; 308.15 K, x2 = 0): 756.36 ± 0.15 kg/m3; viscosity ([3]; 313.15 K, x2 = 0): 0.576 ± 0.009 mPa·s; mass density ([3]; 313.15 K, x2 = 0): 751.99 ± 0.16 kg/m3; viscosity ([3]; 318.15 K, x2 = 0): 0.546 ± 0.009 mPa·s; mass density ([3]; 318.15 K, x2 = 0): 747.6 ± 0.16 kg/m3; refractive index ([4]; 293.15 K, x2 = 0): 1.422 ± 0.001; refractive index ([4]; 303.15 K, x2 = 0): 1.4172 ± 0.001; refractive index ([4]; 313.15 K, x2 = 0): 1.4118 ± 0.001"
CCCCC1CCCCC1 [butylcyclohexane],1.302 ± 0.011 mPa·s,799.47 ± 0.15 kg/m3,1.2 ± 0.011 mPa·s,795.71 ± 0.15 kg/m3,1.111 ± 0.01 mPa·s,791.96 ± 0.15 kg/m3,1.032 ± 0.01 mPa·s,788.2 ± 0.15 kg/m3,0.962 ± 0.01 mPa·s,784.43 ± 0.15 kg/m3,0.899 ± 0.01 mPa·s,780.65 ± 0.15 kg/m3,1.4399 ± 0.001,1.4354 ± 0.001,1.4311 ± 0.001,–
C1C[C@@H]2[C@H]3CC[C@H](C3)[C@@H]2C1 [exo-tetrahydrodicyclopentadiene] + CCC1CCCCC1,–,–,–,–,–,–,–,–,–,–,–,–,–,–,–,"viscosity ([3]; 293.15 K, x1 = 1): 2.992 ± 0.02 mPa·s; mass density ([3]; 293.15 K, x1 = 1): 935.72 ± 0.15 kg/m3; viscosity ([3]; 298.15 K, x1 = 1): 2.71 ± 0.018 mPa·s; mass density ([3]; 298.15 K, x1 = 1): 931.84 ± 0.15 kg/m3; viscosity ([3]; 303.15 K, x1 = 1): 2.467 ± 0.017 mPa·s; mass density ([3]; 303.15 K, x1 = 1): 927.9 ± 0.2 kg/m3; viscosity ([3]; 308.15 K, x1 = 1): 2.255 ± 0.016 mPa·s; mass density ([3]; 308.15 K, x1 = 1): 924.02 ± 0.15 kg/m3; viscosity ([3]; 313.15 K, x1 = 1): 2.069 ± 0.015 mPa·s; mass density ([3]; 313.15 K, x1 = 1): 920.11 ± 0.15 kg/m3; viscosity ([3]; 318.15 K, x1 = 1): 1.907 ± 0.014 mPa·s; mass density ([3]; 318.15 K, x1 = 1): 916.18 ± 0.15 kg/m3; refractive index ([4]; 293.15 K, x1 = 1): 1.4874 ± 0.001; refractive index ([4]; 303.15 K, x1 = 1): 1.4831 ± 0.001; refractive index ([4]; 313.15 K, x1 = 1): 1.4786 ± 0.001"
C1CCCCC1 [cyclohexane],0.977 ± 0.01 mPa·s,778.51 ± 0.15 kg/m3,0.898 ± 0.01 mPa·s,773.84 ± 0.15 kg/m3,0.828 ± 0.009 mPa·s,769.11 ± 0.15 kg/m3,0.766 ± 0.009 mPa·s,764.36 ± 0.15 kg/m3,0.712 ± 0.009 mPa·s,759.57 ± 0.15 kg/m3,0.664 ± 0.009 mPa·s,–,1.4256 ± 0.001,1.4205 ± 0.001,1.4143 ± 0.001,–
C1CCCCC1 [cyclohexane] + C1C[C@@H]2[C@H]3CC[C@H](C3)[C@@H]2C1,–,–,–,–,–,–,–,–,–,–,–,–,–,–,–,"viscosity ([3]; 293.15 K, x2 = 0): 0.977 ± 0.01 mPa·s; mass density ([3]; 293.15 K, x2 = 0): 778.51 ± 0.15 kg/m3; viscosity ([3]; 298.15 K, x2 = 0): 0.898 ± 0.01 mPa·s; mass density ([3]; 298.15 K, x2 = 0): 773.84 ± 0.15 kg/m3; viscosity ([3]; 303.15 K, x2 = 0): 0.828 ± 0.009 mPa·s; mass density ([3]; 303.15 K, x2 = 0): 769.11 ± 0.15 kg/m3; viscosity ([3]; 308.15 K, x2 = 0): 0.766 ± 0.009 mPa·s; mass density ([3]; 308.15 K, x2 = 0): 764.36 ± 0.15 kg/m3; viscosity ([3]; 313.15 K, x2 = 0): 0.712 ± 0.009 mPa·s; mass density ([3]; 313.15 K, x2 = 0): 759.57 ± 0.15 kg/m3; viscosity ([3]; 318.15 K, x2 = 0): 0.664 ± 0.009 mPa·s; refractive index ([4]; 293.15 K, x2 = 0): 1.4256 ± 0.001; refractive index ([4]; 303.15 K, x2 = 0): 1.4205 ± 0.001; refractive index ([4]; 313.15 K, x2 = 0): 1.4143 ± 0.001"
